These results are taken from article PMC8092108, “Mycophenolate suppresses inflammation by inhibiting prostaglandin synthases: a study of molecular and experimental drug repurposing” (PeerJ, 2021).

For one experiment, the target named is T1, COX-2 (Homo sapiens, UniProt P35354).
T1 construct: purchased
T1 sequence (P35354 18-604): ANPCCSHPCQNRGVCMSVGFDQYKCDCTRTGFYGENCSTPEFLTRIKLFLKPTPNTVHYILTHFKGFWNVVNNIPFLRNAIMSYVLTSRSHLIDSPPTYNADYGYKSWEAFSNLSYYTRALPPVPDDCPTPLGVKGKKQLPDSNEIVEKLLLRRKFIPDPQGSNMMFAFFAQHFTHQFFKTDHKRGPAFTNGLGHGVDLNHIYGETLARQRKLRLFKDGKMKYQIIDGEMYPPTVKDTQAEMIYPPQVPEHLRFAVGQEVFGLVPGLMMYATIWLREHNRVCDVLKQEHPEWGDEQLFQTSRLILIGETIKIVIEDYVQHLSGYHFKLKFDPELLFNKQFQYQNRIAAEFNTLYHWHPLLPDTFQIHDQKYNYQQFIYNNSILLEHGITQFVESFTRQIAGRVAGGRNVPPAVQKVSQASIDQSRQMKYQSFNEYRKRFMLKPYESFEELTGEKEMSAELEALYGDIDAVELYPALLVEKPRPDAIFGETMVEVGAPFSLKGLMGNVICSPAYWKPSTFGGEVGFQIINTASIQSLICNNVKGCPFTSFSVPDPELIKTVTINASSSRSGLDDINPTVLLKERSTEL
The experiment can be described thus: COX inhibitor screening assay, COX-2. The class given is biochemical. On the procedure:
The inhibitory effects of the drugs MMF and MPA on COX-1 and COX-2 were measured using the COX inhibitor screening assay kit and LOX inhibitor screening kit. […] Briefly, the reaction buffer (Tris–HCl buffer, pH 8.0) containing 5 mM EDTA, 2 mM phenol, and 1 µM hematin was measured into test tubes. The test drugs were dissolved in dimethyl sulfoxide and added to the tubes to final concentrations of […]. COX-1 or COX-2 was added to the test tubes and preincubated for 10 min at 37 °C. Arachidonic acid was then added, and the tubes were incubated for 2 min at 37 °C. The enzyme immunoassay was used to measure the concentration of the product prostaglandin F2α (PGF2α). The estimated values were determined after comparison to the predetermined standard curve. The IC50 was determined after three different experiments. The selectivity index was calculated from Eq. (1):
(1) Selectivity index=IC50COX−1/IC50COX−2

The test system of a further experiment is 12-LOX. The experiment can be described thus: LOX inhibitor screening kit. It counts as biochemical. On the procedure: The inhibitory effects of the drugs MMF and MPA on COX-1 and COX-2 were measured using the COX inhibitor screening assay kit and LOX inhibitor screening kit. The assay was performed according to the manufacturer’s directions and previously described methods ([Chowdhury et al., 2008]; [Lee et al., 2004]). Briefly, the reaction buffer (Tris–HCl buffer, pH 8.0) containing 5 mM EDTA, 2 mM phenol, and 1 µM hematin was measured into test tubes. The test drugs were dissolved in dimethyl sulfoxide and added to the tubes to final concentrations of […]. COX-1 or COX-2 was added to the test tubes and preincubated for 10 min at 37 °C. Arachidonic acid was then added, and the tubes were incubated for 2 min at 37 °C. The enzyme immunoassay was used to measure the concentration of the product prostaglandin F2α (PGF2α). The estimated values were determined after comparison to the predetermined standard curve. The IC50 was determined after three different experiments. The selectivity index was calculated from Eq. (1): […]

Where two headings read alike, the source gives them in different places.

Consider `COc1c(C)c2c(c(O)c1C/C=C(\C)CCC(=O)OCCN1CCOCC1)C(=O)OC2` [Mycophenolate mofetil], for which the 50% inhibitory concentration (IC50) on COX-2 was determined as 0.19 µM; in the experiment with 12-LOX (printed as 5-LOX in abstract and b38, read-out: IC50 5-LOX), 4.47 µM; with 12-LOX (read-out: IC50 12-LOX), 4.47 µM.
